Results reported in patent US20260297042A1, “BIARYLAMIDE DERIVATIVES AND THEIR USE AS PKMYT1 INHIBITORS” (CANCER RESEARCH TECHNOLOGY LIMITED, priority 2023, published 2026).

biological target: T1, Human PKMYT1 (Homo sapiens, UniProt Q99640); test: PKMYT1 biochemical ADP-Glo enzymatic assay; details: ADP-Glo; 15 nM PKMYT1 kinase domain, 500 µM ATP, 60 minutes at 26° C.; banded
T1 construct: Human PKMYT1 75-362 was cloned as a TEV cleavable 6xHis fusion; 6xHis (TEV cleavable) (cleaved yes); made in house; host or cells: bacterial cells
T1 sequence (Q99640 75-362): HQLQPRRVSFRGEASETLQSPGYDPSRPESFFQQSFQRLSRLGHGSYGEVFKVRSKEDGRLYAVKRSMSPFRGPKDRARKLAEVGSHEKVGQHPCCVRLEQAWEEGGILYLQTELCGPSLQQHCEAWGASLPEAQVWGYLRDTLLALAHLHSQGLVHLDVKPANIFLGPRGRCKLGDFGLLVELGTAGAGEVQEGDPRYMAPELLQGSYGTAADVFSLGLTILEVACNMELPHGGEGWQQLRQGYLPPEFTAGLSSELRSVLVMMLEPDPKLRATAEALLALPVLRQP
Protocol: Human PKMYT1 75-362 was cloned as a TEV cleavable 6xHis fusion in bacterial cells. After purification on a Ni++HiTrap Chelating HP column, the His-tag was cleaved using TEV protease. Cleaved PKMYT1 was further purified on a Superdex 200 16/600 sizing column. The fractions containing PKMYT1 were pooled and concentrated using an ultrafiltration centrifugal protein concentrator. The purified protein was aliquoted, flash frozen in liquid nitrogen, and stored at −80° C.
PKMYT1 biochemical assay: Inhibition of PKMYT1 was assessed using the ADP-Glo™ Max Detection System from Promega. This assay detects the production of ADP from ATP by PKMYT1 via a two-step process ultimately involving the conversion of ADP to ATP with the latter converted to light in a coupled reaction with luciferase/luciferin. Inhibition of PKMYT1 by small molecule inhibitors results in a retardation of luminescence above background. The intrinsic ATPase activity of PKMYT1 was assessed according to the following protocol. Compounds were dosed into Corning white low volume 384 well assay plates using an Echo acoustic dispenser to generate 10-point curves spanning a 3-fold dilution series. DMSO (no inhibitor) control wells were prepared to benchmark the maximum and minimum signals in the presence and absence of PKMYT1, respectively. The PKMYT1 kinase domain was purified in-house, as described above, and added to the wells at a final concentration of 15 nM in a buffer of 50 mM HEPES (pH 7.5), 10 mM MgCl2, 1 mM EGTA, 0.01% Brij-35, 1% DMSO. 500 µM ATP was added to start the reaction with the final assay volume being 4 μl. The plate was then incubated for 60 minutes at 26° C. before the addition of 4 μl of ADP-Glo Reagent to stop the reaction and deplete the unconsumed ATP. Following a further 60 minute incubation the assay signal was developed by the addition of 8 μl ADP-Glo Max Detection Reagent. After 60 minutes the luminescence signal was read on a PHERAStar FS microplate reader (BMG Labtech).
Data analysis: Data was captured and analysed within the Dotmatics Studies software module where dose response curves were generated and IC50 values determined. Acceptance and verification of data followed strict in-house business rules which are summarised as follows. […] Technical and biological replicates of each compound are routinely tested and replicate IC50 values must fall within 3-fold of each other with dose response curves showing ‘goodness of fit’ r2 values >0.9. Failure to meet any of these defined criteria result in rejection of data.

IC50, 50 to 1000 nM:
CCOC(=O)c1coc(Nc2ncc(C(=O)Nc3c(C)ccc(O)c3C)s2)n1 [BAA-045]
Cc1ccc(O)c(C)c1NC(=O)c1cnc(NCC2CCN(C(=O)CN3CCOCC3)CC2)s1 [BAA-217, N-(3-hydroxy-2,6-dimethyl-phenyl)-2-[[1-(2-morpholinoacetyl)-4-piperidyl]methylamino]thiazole-5-carboxamide]
Cc1ccc(O)c(C)c1NC(=O)c1cnc(Nc2ccn(CC(=O)NC[C@H](C)O)n2)s1 [BAA-174]
Cc1ccc(O)c(C)c1NC(=O)c1cnc(Nc2ccn([C@H]3CCOC3)n2)s1 [BAA-041]

IC50, 1000 to 11000 nM:
Cc1ccc(O)c(C)c1NC(=O)c1cnc(N[C@@H]2CCN(C(=O)OC(C)(C)C)C2)s1 [BAA-050]
Cc1ccc(O)c(C)c1NC(=O)c1cnc(Nc2cc(CN3CCN(CCO)CC3)n(C)n2)s1 [BAA-052, N-(3-Hydroxy-2.6-dimethyl-phenyl)-2-[[5-[[4-(2-hydroxyethyl)piperazin-4-ium-1-yl]methyl]-1-methyl-pyrazol-3-yl]amino]thiazole-5-carboxamide]
Cc1ccc(O)c(C)c1NC(=O)c1cnc(N[C@H]2CCN(C(=O)OC(C)(C)C)C2)s1 [BAA-049, tert-butyl (3S)-3-[5-[(3-hydroxy-2,6-dimethyl-phenyl)carbamoyl]thiazol-2-ylamino]pyrrolidine-1-carboxylate]
Cc1ccc(O)c(C)c1NC(=O)c1cnc(NCC2CCN(CC(=O)N(C)C)CC2)s1 [BAA-216, 2-[[1-[2-(dimethylamino)-2-oxo-ethyl]-4-piperidyl]methylamino]-N-(3-hydroxy-2,6-dimethyl-phenyl)thiazole-5-carboxamide]
Cc1cc(-c2ccc(F)cc2)cnc1Nc1ncc(C(=O)Nc2c(C)ccc(O)c2C)s1 [BAA-292, 2-((5-(4-fluorophenyl)-3-methylpyridin-2-yl)amino)-N-(3-hydroxy-2,6-dimethylphenyl)thiazole-5-carboxamide]
Cc1ccc(O)c(C)c1NC(=O)c1cnc(NCCc2ccc(C(F)(F)F)cc2)s1 [BAA-075, N-(3-hydroxy-2,6-dimethyl-phenyl)-2-[2-[4-(trifluoromethyl)phenyl]ethylamino]thiazole-5-carboxamide]
Cc1ccc(O)c(C)c1NC(=O)c1cnc(Nc2ccn([C@H]3CCCN(C(=O)OC(C)(C)C)C3)n2)s1 [BAA-039]
Cc1ccc(O)c(C)c1NC(=O)c1cnc(Nc2cn[nH]c2)s1 [BAA-026, N-(3-hydroxy-2,6-dimethyl-phenyl)-2-(1H-pyrazol-4-ylamino)thiazole-5-carboxamide]
CCN(c1ccc(F)cc1)c1cccc(Nc2ncc(C(=O)Nc3c(C)ccc(O)c3C)s2)n1 [BAA-312, 2-((6-(ethyl(4-fluorophenyl)amino)pyridin-2-yl)amino)-N-(3-hydroxy-2,6-dimethylphenyl)thiazole-5-carboxamide]
Cc1ccc(O)c(C)c1NC(=O)c1cnc(NCCC(C)(C)C)s1 [BAA-074, 2-(3,3-dimethylbutylamino)-N-(3-hydroxy-2,6-dimethyl-phenyl)thiazole-5-carboxamide]
CCN(c1ccc(F)cc1)c1ccc(Nc2ncc(C(=O)Nc3c(C)ccc(O)c3C)s2)nc1 [BAA-311, 2-((5-(ethyl(4-fluorophenyl)amino)pyridin-2-yl)amino)-N-(3-hydroxy-2,6-dimethylphenyl)thiazole-5-carboxamide]
Cc1ccc(O)c(C)c1NC(=O)c1cnc(NCC(N)=O)s1 [BAA-070, 2-[(2-amino-2-oxo-ethyl)amino]-N-(3-hydroxy-2,6-dimethyl-phenyl)thiazole-5-carboxamide]
Cc1ccc(O)c(C)c1NC(=O)c1cnc(NC2CCCCC2)s1 [BAA-064, 2-(cyclohexylamino)-N-(3-hydroxy-2,6-dimethyl-phenyl)thiazole-5-carboxamide]
Cc1ccc(O)c(C)c1NC(=O)c1cnc(Nc2ccc(-c3ccc(F)cc3)cn2)s1 [BAA-291, 2-((5-(4-fluorophenyl)pyridin-2-yl)amino)-N-(3-hydroxy-2,6-dimethylphenyl)thiazole-5-carboxamide]
Cc1ccc(O)c(C)c1NC(=O)c1cnc(NCCCO)s1 [BAA-069, N-(3-hydroxy-2,6-dimethyl-phenyl)-2-(3-hydroxypropylamino)thiazole-5-carboxamide]
Cc1ccc(O)c(C)c1NC(=O)c1cnc(NCC2CCN(C(=O)CN3CCCC3)CC2)s1 [BAA-211, N-(3-Hydroxy-2.6-dimethyl-phenyl)-2-[[1-(2-pyrrolidin-1-ylacetyl)-4-piperidyl]methylamino]thiazole-5-carboxamide]
Cc1ccc(O)c(C)c1NC(=O)c1cnc(Nc2ccn(CCNC(=O)OC(C)(C)C)n2)s1 [BAA-020, tert-butyl N-[2-[3-[5-[(3-hydroxy-2,6-dimethyl-phenyl)carbamoyl]thiazol-2-yl]amino]pyrazol-1-ylethyl]carbamate]

same assay, conditions: PKMYT1 biochemical ADP-Glo enzymatic assay; Comparison Data 1

IC50, 26800 nM:
Cc1c(O)cccc1NC(=O)c1cnc(N)s1 [REF-002, 2-Amino-N-(3-hydroxy-2-methyl-phenyl)thiazole-5-carboxamide, reference compound]

IC50, 53200 nM:
Cc1ccc(O)cc1NC(=O)c1cnc(N)s1 [REF-001, 2-Amino-N-(5-hydroxy-2-methyl-phenyl)thiazole-5-carboxamide, reference compound]

same assay, conditions: PKMYT1 biochemical ADP-Glo enzymatic assay; Comparison Data 2

IC50, 54300 nM:
Cc1cccc(C)c1NC(=O)c1cnc(Nc2ccn(C)n2)s1 [REF-003, N-(2,6-Dimethylphenyl)-2-[(1-methylpyrazol-3-yl)amino]thiazole-5-carboxamide, reference compound]

IC50, > 100000 nM:
COc1ccc(C)c(NC(=O)c2cnc(Nc3ccn(C)n3)s2)c1C [REF-004, N-(3-Methoxy-2,6-dimethyl-phenyl)-2-[(1-methylpyrazol-3-yl)amino]thiazole-5-carboxamide, reference compound]

same assay, conditions: PKMYT1 kinase domain 15 nM; ADP-Glo; banded values

IC50, 1000 to 11000 nM:
Cc1cc(C)c(NC(=O)c2cnc(Nc3ccn(C)n3)s2)c(C)c1O [BAA-517, N-(3-Hydroxy-2,4,6-trimethylphenyl)-2-((1-methyl-1H-pyrazol-3-yl)amino)thiazole-5-carboxamide]
CCN(CC)C(=O)Cn1nc(C(F)(F)F)cc1Nc1ncc(C(=O)Nc2c(C)ccc(O)c2C)s1 [BAA-561, 2-((1-(2-(diethylamino)-2-oxoethyl)-3-(trifluoromethyl)-1H-pyrazol-5-yl)amino)-N-(3-hydroxy-2,6-dimethylphenyl)thiazole-5-carboxamide]
Cc1ccc(O)c(C)c1NC(=O)c1cnc(Nc2ccccc2C(C)C)s1 [BAA-525, N-(3-hydroxy-2,6-dimethylphenyl)-2-((2-isopropylphenyl)amino)thiazole-5-carboxamide]
Cc1cc(Cl)c(O)c(C)c1NC(=O)c1cnc(Nc2ccn(C)n2)s1 [BAA-547, N-(4-chloro-3-hydroxy-2,6-dimethylphenyl)-2-((1-methyl-1H-pyrazol-3-yl)amino)thiazole-5-carboxamide]

IC50, < 50 nM:
Cc1ccc(N2CCN(C3CC3)CC2)nc1Nc1ncc(C(=O)Nc2c(C)ccc(O)c2C)s1 [BAA-433, 2-((6-(4-cyclopropylpiperazin-1-yl)-3-methylpyridin-2-yl)amino)-N-(3-hydroxy-2,6-dimethylphenyl)thiazole-5-carboxamide]
